Assay results published in patent US20020048572A1, “Treatment of hypertriglyceridemia and other conditions using LXR modulators” (priority 2000, published 2002).
pEC50: −log10 of the molar value. Entries after “also recorded” stand apart in the source; their conditions may differ.

Experiments:
[1] = target: T1, LXRα ligand-binding domain (Homo sapiens, UniProt Q13133); assay: biochemical
T1 sequence (Q13133 209-447 limits assumed): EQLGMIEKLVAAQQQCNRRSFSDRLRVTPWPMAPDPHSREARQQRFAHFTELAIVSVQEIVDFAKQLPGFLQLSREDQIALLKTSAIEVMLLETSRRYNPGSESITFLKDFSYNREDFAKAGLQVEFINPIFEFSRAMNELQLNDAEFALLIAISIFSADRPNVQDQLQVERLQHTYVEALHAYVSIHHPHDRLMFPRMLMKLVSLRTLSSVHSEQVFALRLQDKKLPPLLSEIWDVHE

[2] = test system: HepG2, 293, and CaCO2 cells; assay: Northern blot analysis of three cell lines treated with oxysterols in presence of cyclohexamide; type: cell-based; details: 30 μM, 50 μg/ml cyclohexamide, 18 hours
Description: To ascertain whether or not the 24,25-epoxycholesterol-mediated activation of SREBP-1 expression is cell-specific, three cell lines were tested. HepG2, 293, and CaCO2 cells were treated with either DMSO, 30 μM of 24,25-epoxycholesterol, 30 μM of 22(R)-hydroxycholesterol, or 30 μM 22(S)-hydroxycholesterol in the presence of 50 μg/ml cyclohexamide in DMEM F12 media supplemented with 10% lipid-free serum for 18 hours.
Total RNA was then prepared using the Trizol method. Electrophoresis and Northern blot analysis were performed using the NorthernMax™ system (Ambion). Ribonucleotide probes were used to identify RNA transcripts.

HepG2 cells [3] = assay: Northern blot analysis of HepG2 cells treated with LXRα ligand, with or without cyclohexamide; type: cell-based
Description: HepG2 cells were treated with 24,25-epoxycholesterol in the presence or absence of 50 μg/ml cyclohexamide in DMEM F12 media supplemented with 10% lipid-free serum for 18 hours.
Total RNA was then prepared using the TRIzol® method (Chomczynski and Saachi (1987) Anal. Biochem. 162:156). Electrophoresis and Northern blot analysis were performed using the NorthernMax™ system (Ambion). Ribonucleotide probes were used to identify the RNA transcripts.

LXRα = target: T2, LXRα (Homo sapiens, UniProt Q13133); details: SPA
T2 sequence (Q13133 1-447): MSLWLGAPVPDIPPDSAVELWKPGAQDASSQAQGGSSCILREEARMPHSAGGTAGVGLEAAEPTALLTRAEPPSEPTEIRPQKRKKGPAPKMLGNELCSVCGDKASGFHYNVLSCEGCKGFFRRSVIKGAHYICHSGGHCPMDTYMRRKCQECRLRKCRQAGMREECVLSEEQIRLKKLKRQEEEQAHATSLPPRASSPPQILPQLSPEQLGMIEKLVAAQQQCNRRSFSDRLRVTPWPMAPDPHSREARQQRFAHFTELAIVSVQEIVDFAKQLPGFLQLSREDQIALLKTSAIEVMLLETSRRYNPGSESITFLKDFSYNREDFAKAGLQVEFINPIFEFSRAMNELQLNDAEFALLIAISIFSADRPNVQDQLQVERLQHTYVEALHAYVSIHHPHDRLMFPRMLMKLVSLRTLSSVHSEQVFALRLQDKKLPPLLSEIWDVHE

HepG2 cells [4] = assay: Northern blot analysis of T0314407-dosed HepG2 cells with and without cycloheximide; type: cell-based; details: HepG2, with 50 μg/mL cycloheximide, 18 h
Description: FIG. 9. Northern blot analysis. Total RNA was isolated from the tissues indicated from mice (A,B,C) and hamsters (D). The numerical data shown with each figure represents the fold increase (+) or decrease (−) of expression relative to corresponding vehicle-treated controls. (E) HepG2 cells were incubated in culture media with or without cycloheximide (cyclohex). For the Northern blot analysis from cycloheximide-treated HepG2 cells, tissue cultures were incubated in cell culture media with 10% lipid-deficient serum with or without 50 μg/mL cycloheximide. T0314407 was added after 30 min of cycloheximide treatment, cells were harvested 18 h later, and total RNA was extracted as described.

[5] = HepG2, presence and absence of 50 μg/ml cyclohexamide, 18 hours

SMILES	pEC50 [1]	expression of GAPDH [2]	expression of SREBP-2 [2]	SREBP-1 expression ([2]; all three cell lines)	expression of SREBP-2 (HepG2 cells [3]; HepG2, 18 hours)	expression of negative control GAPDH (HepG2 cells [3]; HepG2, 18 hours)	expression of SREBP-1 mRNA (HepG2 cells [3]; [5])	expression of fatty acid synthase (HepG2 cells [3]; [5])	competition with binding of radiolabeled T0314407 to LXRα (LXRα)	agonist-mediated increase in levels of FAS mRNA (HepG2 cells [4])	induction of SREBP-1 gene expression (HepG2 cells [4])
C[C@H](CC[C@@H]1OC1(C)C)[C@H]1CC[C@H]2[C@@H]3CC=C4C[C@@H](O)CC[C@]4(C)[C@H]3CC[C@]12C [24,25-epoxycholesterol, 24(S),25-epoxycholesterol]	6.52	not significantly enhanced	not significantly enhanced	activates	not affected	not affected	stimulated; also recorded: activates	stimulated	competed	–	–
CN(c1ccc(C(O)(C(F)(F)F)C(F)(F)F)cc1)S(=O)(=O)c1ccccc1 [T0314407, N-methyl-N-[4-(2,2,2-trifluoro-1-hydroxy-1-trifluoromethyl-ethyl)-phenyl]-benzenesulfonamide]	–	–	–	–	–	–	–	–	–	arrested	persisted
